Experimental findings from patent publication US9283222B2 (priority 2006, dated 2016) are described below.

This assay deals with Recombinant Human Poly(ADP-Ribose) Polymerase (PARP), PARP-1 (Homo sapiens (Human), UniProt P09874). The following applies: read-out: PARP-1 (Ki); Table 1; text calls the values EC50s.
Chain of Recombinant Human Poly(ADP-Ribose) Polymerase (PARP), PARP-1 (P09874 whole entry): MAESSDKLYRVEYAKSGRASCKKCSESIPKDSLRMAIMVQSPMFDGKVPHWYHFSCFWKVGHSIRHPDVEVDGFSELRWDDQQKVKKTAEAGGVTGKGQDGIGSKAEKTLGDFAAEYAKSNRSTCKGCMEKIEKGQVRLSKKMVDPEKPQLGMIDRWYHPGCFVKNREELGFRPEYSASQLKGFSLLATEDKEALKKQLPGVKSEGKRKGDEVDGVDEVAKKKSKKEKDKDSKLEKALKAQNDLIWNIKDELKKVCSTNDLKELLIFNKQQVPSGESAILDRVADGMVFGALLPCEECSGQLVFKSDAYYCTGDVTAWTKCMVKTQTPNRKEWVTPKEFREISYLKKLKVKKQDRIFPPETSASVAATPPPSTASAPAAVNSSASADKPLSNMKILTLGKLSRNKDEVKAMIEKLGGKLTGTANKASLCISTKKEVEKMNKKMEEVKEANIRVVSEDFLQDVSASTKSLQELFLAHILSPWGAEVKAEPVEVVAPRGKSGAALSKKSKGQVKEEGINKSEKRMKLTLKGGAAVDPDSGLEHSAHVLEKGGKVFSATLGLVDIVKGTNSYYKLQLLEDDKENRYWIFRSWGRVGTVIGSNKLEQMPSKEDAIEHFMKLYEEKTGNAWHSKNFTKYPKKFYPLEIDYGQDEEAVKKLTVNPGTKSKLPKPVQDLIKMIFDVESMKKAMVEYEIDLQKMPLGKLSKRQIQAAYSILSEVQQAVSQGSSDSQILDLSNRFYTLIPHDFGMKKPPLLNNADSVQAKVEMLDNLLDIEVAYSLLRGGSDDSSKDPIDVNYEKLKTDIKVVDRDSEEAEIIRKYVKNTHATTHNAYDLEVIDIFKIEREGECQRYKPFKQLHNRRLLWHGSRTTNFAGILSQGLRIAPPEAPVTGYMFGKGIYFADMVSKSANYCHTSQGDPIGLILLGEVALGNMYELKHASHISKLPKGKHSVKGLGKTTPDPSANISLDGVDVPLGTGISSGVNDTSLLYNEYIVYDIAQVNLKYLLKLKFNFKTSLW

`O=C1CCN1c1cc(Cc2n[nH]c(=O)c3c2CCCC3)ccn1` [Example 101, 4-((2-(2-oxoazetidin-1-yl)pyridin-4-yl)methyl)-5,6,7,8-tetrahydrophthalazin-1(2H)-one]: the Ki turned out to be 21 nM.
Next, `O=C1CCCN1c1ccc(Cc2n[nH]c(=O)c3c2CCCC3)cn1` [Example 104, 4-((6-(2-oxopyrrolidin-1-yl)pyridin-3-yl)methyl)-5,6,7,8-tetrahydrophthalazin-1(2H)-one]: 1230 nM; `O=C1CCN1c1ccc(Cc2n[nH]c(=O)c3c2CCCC3)cn1` [Example 105, 4-((6-(2-oxoazetidin-1-yl)pyridin-3-yl)methyl)-5,6,7,8-tetrahydrophthalazin-1(2H)-one]: 725 nM; `O=C(Nc1ccc(Cc2n[nH]c(=O)c3c2CCCC3)cn1)c1ccccc1` [Example 106, N-(5-((4-oxo-3,4,5,6,7,8-hexahydrophthalazin-1-yl)methyl)pyridin-2-yl)benzamide]: 290 nM.
Consider `O=C(Nc1ccc(Cc2n[nH]c(=O)c3c2CCCC3)cn1)c1ccncc1` [Example 107, N-(5-((4-oxo-3,4,5,6,7,8-hexahydrophthalazin-1-yl)methyl)pyridin-2-yl)isonicotinamide], for which the Ki was 216 nM.
Next, `O=C(Nc1ccc(Cc2n[nH]c(=O)c3c2CCCC3)cn1)c1cccnc1` [Example 108, N-(5-((4-oxo-3,4,5,6,7,8-hexahydrophthalazin-1-yl)methyl)pyridin-2-yl)nicotinamide]: 576 nM; `O=c1[nH]nc(Cc2ccc(-c3ccc(Cc4n[nH]c(=O)c5c4CCCC5)cn3)nc2)c2c1CCCC2` [Example 109, 4-((5′-((4-oxo-3,4,5,6,7,8-hexahydrophthalazin-1-yl)methyl)-2,2′-bipyridin-5-yl)methyl)-5,6,7,8-tetrahydrophthalazin-1(2H)-one]: 609 nM.
With `CNC(=O)c1ccc(Cc2n[nH]c(=O)c3c2CCCC3)s1` [Example 110, N-methyl-5-((4-oxo-3,4,5,6,7,8-hexahydrophthalazin-1-yl)methyl)thiophene-2-carboxamide] the figure was 372 nM; with `NCC(=O)Nc1cccc(Cc2n[nH]c(=O)c3c2CCCC3)c1` [Example 111], 12 nM; with `O=C(Nc1cccc(Cc2n[nH]c(=O)c3c2CCCC3)c1)C1CNC1` [Example 113, N-(3-((4-oxo-3,4,5,6,7,8-hexahydrophthalazin-1-yl)methyl)phenyl)azetidine-3-carboxamide], 6 nM.
With `CS(=O)(=O)Nc1cccc(Cc2n[nH]c(=O)c3c2CCCC3)c1` [Example 114, N-(3-((4-oxo-3,4,5,6,7,8-hexahydrophthalazin-1-yl)methyl)phenyl)methanesulfonamide] the figure was 65 nM; with `CC(C)S(=O)(=O)Nc1cccc(Cc2n[nH]c(=O)c3c2CCCC3)c1` [Example 115, N-(3-((4-oxo-3,4,5,6,7,8-hexahydrophthalazin-1-yl)methyl)phenyl)propane-2-sulfonamide], 157 nM.
As to `O=c1[nH]nc(Cc2cccc(NS(=O)(=O)c3ccccc3)c2)c2c1CCCC2` [Example 116, N-(3-((4-oxo-3,4,5,6,7,8-hexahydrophthalazin-1-yl)methyl)phenyl)benzenesulfonamide], the Ki turned out to be 578 nM.
As to `O=c1[nH]nc(Cc2cccc(NS(=O)(=O)c3cccnc3)c2)c2c1CCCC2` [Example 117, N-(3-((4-oxo-3,4,5,6,7,8-hexahydrophthalazin-1-yl)methyl)phenyl)pyridine-3-sulfonamide], the Ki came to 477 nM.
Next, `O=c1[nH]nc(Cc2cccc(NS(=O)(=O)c3ccco3)c2)c2c1CCCC2` [Example 118, N-(3-((4-oxo-3,4,5,6,7,8-hexahydrophthalazin-1-yl)methyl)phenyl)furan-2-sulfonamide]: 2030 nM; `Cn1cnc(S(=O)(=O)Nc2cccc(Cc3n[nH]c(=O)c4c3CCCC4)c2)c1` [Example 119, 1-methyl-N-(3-((4-oxo-3,4,5,6,7,8-hexahydrophthalazin-1-yl)methyl)phenyl)-1H-imidazole-4-sulfonamide]: 703 nM.
